Values joined by “and” are separate entries in the source; they are usually repeats but may differ in a detail not shown here. Equal values may be shown once. “Also recorded” adds a separate entry of the source.

Common to all, as to type: in vivo, mouse
In assay [1] the test system is Pten^pc−/−; Zbtb7a^pc−/− prostate tumors. The assay is described as follows: Tumor growth by MRI in Pten^pc−/−; Zbtb7a^pc−/− mice under drug or antibody treatment. The following applies: for tumor volume: Pten-Zbtb7a, individual mice. The procedure: (§1) Mice were allocated at random to experimental groups and studies were performed in an unblended manner. For treatment with the CXCR2 antagonist, SB225002 (Cayman Chemical #13336) was dissolved in DMSO (10 mg/ml) and diluted in vehicle (0.9% NaCl, 0.3% Tween 80) for in vivo administration. Mice (4 months of age) were treated daily for 10 days by intraperitoneal injection (5 mg/kg) and prostate tumor tissue (anterior lobes) was subjected to Flow Cytometry and histological analysis. For MRI analysis, mice (4 months of age) were treated daily for 21 days (Pten^pc−/−; Zbtb7a^pc−/−), for 14 days (Pten^pc−/−; Trp53^pc−/−) or for 14 days (Pten^pc−/−; Pml^pc−/−) by intraperitoneal injection (5 mg/kg). For depletion of Gr-1+/CD11b+ cells, Ly6G-depletion antibody (1A8, BioXcell) and control Rat IgG2a antibody (BioXcell) were diluted in phosphate-buffered saline (PBS) for in vivo administration. Mice (4 months of age) were treated every other day for 10 days by intraperitoneal injection (200-300 μg/mouse). InVivoMAb anti-mouse Ly6G/Ly6C (Gr-1) antibody, clone RB6-8C5 (BE0075, BioXcell), and control Rat IgG2b antibody (BE0090, BioXcell) were diluted in PBS and Pten^pc−/−; Trp53^pc−/− mice were treated every other day for 14 days by intraperitoneal injection (200 μg/mouse). For neutralization of CXCL5, anti-Mouse CXCL5 antibody (Leinco Technologies) and control Rat IgG2a antibody (BioXcell) were diluted in PBS and injected every other day for 21 days by intraperitoneal injection (20 μg/mouse). Tumor volume quantification was performed by using VivoQuant and Image J software. All mouse prostate MRI imaging analysis was performed at Small Animal Imaging Core at BIDMC and acquired on an ASPECT Model M2 1T tabletop scanner.

Assay [2] has as its system Pten^pc−/−; Pml^pc−/− prostate tumors. The assay is described as follows: Flow cytometry of immune infiltrate in treated Pten^pc−/−; Pml^pc−/− prostate tumors. The following applies: Pml^pc−/− prostate tumors after treatment. The procedure: (§2) Mice were allocated at random to experimental groups and studies were performed in an unblended manner. For treatment with the CXCR2 antagonist, SB225002 (Cayman Chemical #13336) was dissolved in DMSO (10 mg/ml) and diluted in vehicle (0.9% NaCl, 0.3% Tween 80) for in vivo administration. Mice (4 months of age) were treated daily for 10 days by intraperitoneal injection (5 mg/kg) and prostate tumor tissue (anterior lobes) was subjected to Flow Cytometry and histological analysis. For MRI analysis, mice (4 months of age) were treated daily for 21 days (Pten^pc−/−; Zbtb7a^pc−/−), for 14 days (Pten^pc−/−; Trp53^pc−/−) or for 14 days (Pten^pc−/−; Pml^pc−/−) by intraperitoneal injection (5 mg/kg). For depletion of Gr-1+/CD11b+ cells, Ly6G-depletion antibody (1A8, BioXcell) and control Rat IgG2a antibody (BioXcell) were diluted in phosphate-buffered saline (PBS) for in vivo administration. Mice (4 months of age) were treated every other day for 10 days by intraperitoneal injection (200-300 μg/mouse). […] Tumor volume quantification was performed by using VivoQuant and Image J software. […]
For Flow Cytometry, spleen and lymph node single cell suspensions were prepared by mashing the tissue in 2% FBS/PBS. […] All staining mixtures were analyzed on a BD LSR II flow cytometer (Becton Dickinson). Resulting profiles were further processed and analyzed using the FlowJo 8.7 software.
(In flow cytometry, cells or beads pass a laser one at a time.)

In assay [3] the test system is Pten^pc−/−; Zbtb7a^pc−/− tumors (anterior prostate lobes). The assay is described as follows: Histological analysis of treated Pten^pc−/−; Zbtb7a^pc−/− tumors. The following applies: Zbtb7a^pc−/− mice, 10 days of i.p. treatment, versus vehicle or control IgG. The procedure:
as §2, with “mg/kg).” for “mg/kg). For depletion of Gr-1+/CD11b+ cells, Ly6G-depletion antibody (1A8, BioXcell) and control Rat IgG2a antibody (BioXcell) were diluted in phosphate-buffered saline (PBS) for in vivo administration. Mice (4 months of age) were treated every other day for 10 days by intraperitoneal injection (200-300 μg/mouse).”
For western blotting, cell lysates were prepared by homogenizing tumor tissue with NP40 Buffer (Boston Bioproducts) supplemented with protease (Roche) and HALT phosphatase inhibitor cocktails (Thermo Scientific) and subsequently subjected to SDS-Gel separation (Invitrogen) and western blotting. […] Western blots were quantified using Image J software. […] Embedding and hematoxylin and eosin staining of sections were performed by the Histology Core at BIDMC and analyzed by a pathologist. […]

Assay [4] relates to Pten^pc−/−; Trp53^pc−/− prostate tumors. The assay is described as follows: Tumor growth by MRI in Pten^pc−/−; Trp53^pc−/− mice under drug or antibody treatment. The following applies: for tumor volume: individual mice. How it is done: as §1

In the case of `O=C(Nc1ccc([N+](=O)[O-])cc1O)Nc1ccccc1Br` [SB225002], the tumor volume in assay [1] (CXCR2i (SB225002 5 mg/kg i.p. daily), row 0 = day 0 baseline, MRI) was 54.248 mm3 and 79.3701 mm3 and 59.2774 mm3; in assay [1] (CXCR2i, row 1 (weekly MRI)), 44.3115 mm3 and 67.9688 mm3 and 65.0879 mm3; in assay [1] (CXCR2i, row 2 (weekly MRI)), 41.1865 mm3 and 68.9697 mm3 and 58.6914 mm3; in assay [1] (CXCR2i, row 3 (weekly MRI, 3 weeks on treatment)) it was 42.1142 mm3 and 71.3379 mm3 and 66.0889 mm3; in assay [4] (Pten-Trp53, CXCR2i (SB225002 5 mg/kg i.p. daily), row 0 = day 0 baseline, MRI), 67.016 mm3 and 32.276 mm3 and 66.382 mm3; in assay [4] (Pten-Trp53, CXCR2i, row 1 (weekly MRI)) it was 53.809 mm3 and 31.739 mm3 and 68.018 mm3. For the same molecule, the tumor volume in assay [4] (Pten-Trp53, CXCR2i, row 2 (weekly MRI, 2 weeks on treatment)) was 51.807 mm3 and 39.795 mm3 and 63.477 mm3. In addition, the tumor growth result in assay [1] (Pten^pc−/−, Zbtb7a^pc−/− mice, versus vehicle or control IgG) is given as “significantly suppressed the tumor growth; also recorded: significant inhibition of tumor growth”; in assay [4] (Pten^pc−/−, Trp53^pc−/− mice, versus vehicle or control IgG), “significantly suppressed the tumor growth; also recorded: significant inhibition of tumor growth”. Moreover, the “intra-tumoral Gr-1+/CD11b+ cells” value in assay [2] is “decrease of Gr-1+/CD11b+ cells”. In addition, the “tumor burden by histological analysis” value in assay [3] was “reduced tumor burden”; in assay [3] (listed as CXCR2 inhibitor), “significantly diminished tumor involvement”.

For the origin of these results see patent US20210301349A1, “COMPOSITIONS AND METHODS FOR TREATING A TUMOR SUPPRESSOR DEFICIENT CANCER” (BETH ISRAEL DEACONESS MEDICAL CENTER, INC., priority 2016, published 2021).
